Our source for the T/C values is PubChem BioAssay AID330 (DTP/NCI, 2004).

This assay relates to P388 leukemia ip, CD2F1 mice, survival T/C. Put plainly: NCI In Vivo Anticancer Drug Screen. Data for tumor model P388 Leukemia (intraperitoneal) in CD2F1 (CDF1) mice. To be noted: endpoint: median survival time, higher = longer survival. The essentials:
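Mice carrying the transplanted tumor received test compound or vehicle. Survival was recorded in each group, and the value is the treated-group measurement divided by that of the vehicle-treated control group.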

Setting [1] is: dose: 100.0 mg/kg/injection, schedule: Q04DX002 (ip), vehicle: saline with Tween-80.
The mark [2] stands for this setting: dose: 200.0 mg/kg/injection, schedule: Q04DX002 (ip), vehicle: saline with Tween-80.
Where [3] appears, read: dose: 400.0 mg/kg/injection, schedule: Q04DX002 (ip), vehicle: saline with Tween-80.
[4] abbreviates: dose: 60.0 mg/kg/injection, schedule: Q01DX005 (ip), vehicle: saline with Tween-80.
The mark [5] stands for this setting: dose: 120.0 mg/kg/injection, schedule: Q01DX005 (ip), vehicle: saline with Tween-80.
Where [6] appears, read: dose: 240.0 mg/kg/injection, schedule: Q01DX005 (ip), vehicle: saline with Tween-80.
The mark [7] stands for this setting: dose: 50.0 mg/kg/injection, schedule: Q01DX009 (ip), vehicle: saline with Tween-80.
[8] abbreviates: dose: 50.0 mg/kg/injection, schedule: Q01DX005 (ip), vehicle: saline with Tween-80.
[9] abbreviates: dose: 100.0 mg/kg/injection, schedule: Q01DX005 (ip), vehicle: saline with Tween-80.
[10] abbreviates: dose: 200.0 mg/kg/injection, schedule: Q01DX005 (ip), vehicle: saline with Tween-80.
[11] abbreviates: dose: 100.0 mg/kg/injection, schedule: Q01DX009 (ip), vehicle: saline with Tween-80.
The mark [12] stands for this setting: dose: 60.0 mg/kg/injection, schedule: Q01DX005 (ip), vehicle: Klucel (hydroxypropylcellulose) (HPC).
The mark [13] stands for this setting: dose: 120.0 mg/kg/injection, schedule: Q01DX005 (ip), vehicle: Klucel (hydroxypropylcellulose) (HPC).
[14] abbreviates: dose: 240.0 mg/kg/injection, schedule: Q01DX005 (ip), vehicle: Klucel (hydroxypropylcellulose) (HPC).

Values joined by “and” are separate entries in the source; they are usually repeats but may differ in a detail not shown here. Equal entries are not always repeated. Toxic doses and inconclusive results are not listed.

As for `CCCCCCCC(=O)N/N=C(\CO)[C@]1(O)Cc2c(O)c3c(c(O)c2[C@@H](OC2CC(N)C(O)C(C)O2)C1)C(=O)c1c(OC)cccc1C3=O` (some centres not stated), the T/C runs as follows: (dose: 1.25 mg/kg/injection, schedule: Q04DX003 (ip), vehicle: water) 109 % of control; (dose: 2.5 mg/kg/injection, schedule: Q04DX003 (ip), vehicle: water) 109 % of control; (dose: 5.0 mg/kg/injection, schedule: Q04DX003 (ip), vehicle: water) 107 % of control; (dose: 10.0 mg/kg/injection, schedule: Q04DX003 (ip), vehicle: water) 119 % of control and 121 % of control; (dose: 20.0 mg/kg/injection, schedule: Q04DX003 (ip), vehicle: water) 123 % of control; (dose: 80.0 mg/kg/injection, schedule: Q04DX003 (ip), vehicle: water) 179 % of control.

`O=C(CC(=O)c1ccccc1)C(=O)CC(=O)c1ccccc1`: the T/C under setting [1] was 103 % of control, the T/C under setting [2] was 99 % of control and the T/C under setting [3] is 99 % of control.

With `CNC(=O)OCc1nc(-c2ccccc2)sc1COC(=O)NC`, the T/C (dose: 12.5 mg/kg/injection, schedule: Q01DX005 (ip), vehicle: distilled water + Tween-80) was 94 % of control and the T/C (dose: 25.0 mg/kg/injection, schedule: Q01DX005 (ip), vehicle: distilled water + Tween-80) was 93 % of control.

`CC(C)C(C(=O)O)N(C)C(=O)c1cnc2ccccc2n1` (configuration not stated): the T/C reads like this: under setting [4], 104 % of control; under setting [5], 97 % of control; under setting [6], 99 % of control.

`CSc1nccn2cnnc12`: the T/C (dose: 100.0 mg/kg/injection, schedule: Q01DX001 (ip), vehicle: Klucel (hydroxypropylcellulose) (HPC)) was 101 % of control; the T/C (dose: 200.0 mg/kg/injection, schedule: Q01DX001 (ip), vehicle: Klucel (hydroxypropylcellulose) (HPC)) is 104 % of control; the T/C (dose: 400.0 mg/kg/injection, schedule: Q01DX001 (ip), vehicle: Klucel (hydroxypropylcellulose) (HPC)) was 101 % of control.

`C/C(=N\NC(=S)/N=c1\sccn1Cc1ccccc1)c1ccccn1`: the T/C (dose: 6.25 mg/kg/injection, schedule: Q01DX005 (ip), vehicle: saline with Tween-80) is 117 % of control and 123 % of control.

Take `CCCC(=O)OCC1OC(n2cnc3c(=S)nc(N)[nH]c32)C(OC(=O)CCC)C1OC(=O)CCC` (configuration not stated): the T/C is 100 % of control (dose: 1.25 mg/kg/injection, schedule: Q04DX003 (ip), vehicle: saline with Tween-80); 104 % of control (dose: 2.5 mg/kg/injection, schedule: Q04DX003 (ip), vehicle: saline with Tween-80); 113 % of control (dose: 5.0 mg/kg/injection, schedule: Q04DX003 (ip), vehicle: saline with Tween-80); 155 % of control (dose: 10.0 mg/kg/injection, schedule: Q04DX003 (ip), vehicle: saline with Tween-80); 165 % of control (dose: 20.0 mg/kg/injection, schedule: Q04DX003 (ip), vehicle: saline with Tween-80); 122 % of control (dose: 25.0 mg/kg/injection, schedule: Q01DX009 (ip), vehicle: saline with Tween-80). Further, the T/C by setting is: (dose: 25.0 mg/kg/injection, schedule: Q04DX003 (ip), vehicle: saline with Tween-80) 150 % of control; under setting [7], 90 % of control; (dose: 50.0 mg/kg/injection, schedule: Q04DX003 (ip), vehicle: saline with Tween-80) 116 % of control; (dose: 200.0 mg/kg/injection, schedule: Q04DX003 (ip), vehicle: saline with Tween-80) 118 % of control.

In the case of `CC(=Nc1ccc(S(=O)(=O)c2ccc(N=C(C)N3CCCCC3)cc2)cc1)N1CCCCC1`, the T/C runs as follows: under setting [8], 100 % of control; under setting [9], 97 % of control; under setting [10], 88 % of control.

As to `S=C(NCCN1CCN2Cc3[nH]c4ccccc4c3CC2C1)Nc1ccccc1` (configuration not stated), the T/C reads like this: under setting [8], 94 % of control; under setting [9], 91 % of control; under setting [10], 102 % of control.

Consider `c1cnc2c(c1)Sc1ncccc1S2`, for which the T/C under setting [7] was 96 % of control and the T/C under setting [11] is 92 % of control.

Regarding `COC(=O)c1nc(=S)[nH]c(C(=O)OC)c1C(=O)c1ccccc1`, the T/C was 101 % of control (dose: 60.0 mg/kg/injection, schedule: Q01DX005 (ip), vehicle: Klucel + Tween-80); 93 % of control (dose: 120.0 mg/kg/injection, schedule: Q01DX005 (ip), vehicle: Klucel + Tween-80); 92 % of control (dose: 240.0 mg/kg/injection, schedule: Q01DX005 (ip), vehicle: Klucel + Tween-80).

On to `CC1=NN(c2ccccc2)C(=O)/C1=C\c1ccc([N+](=O)[O-])cc1`, for which the T/C reads like this: under setting [4], 104 % of control; under setting [5], 101 % of control; under setting [6], 103 % of control.

On to `CCOC(=O)C(C)(C(=O)c1ccccc1)C(=O)C(C)(C)C` (configuration not stated), for which the T/C by setting is: (dose: 75.0 mg/kg/injection, schedule: Q01DX009 (ip), vehicle: saline with Tween-80) 107 % of control; (dose: 150.0 mg/kg/injection, schedule: Q01DX009 (ip), vehicle: saline with Tween-80) 103 % of control; (dose: 300.0 mg/kg/injection, schedule: Q01DX009 (ip), vehicle: saline with Tween-80) 115 % of control.

`CSc1ccc(C(C)=O)cc1`: the T/C by setting is: (dose: 50.0 mg/kg/injection, schedule: Q01DX009 (ip), vehicle: saline + alcohol) 100 % of control; (dose: 100.0 mg/kg/injection, schedule: Q01DX009 (ip), vehicle: saline + alcohol) 102 % of control; (dose: 200.0 mg/kg/injection, schedule: Q01DX009 (ip), vehicle: saline + alcohol) 100 % of control; (dose: 400.0 mg/kg/injection, schedule: Q01DX009 (ip), vehicle: saline + alcohol) 104 % of control.

Turning to `OC(CN1CCOCC1)c1ccccn1` (configuration not stated), the T/C by setting is: (dose: 50.0 mg/kg/injection, schedule: Q01DX009 (ip), vehicle: saline) 95 % of control; (dose: 100.0 mg/kg/injection, schedule: Q01DX009 (ip), vehicle: saline) 92 % of control; (dose: 200.0 mg/kg/injection, schedule: Q01DX009 (ip), vehicle: saline) 92 % of control.

On to `N#Cc1ccc(OC(=O)Nc2ccc(Br)cc2)cc1`, for which the T/C runs as follows: under setting [12], 115 % of control; under setting [13], 114 % of control; under setting [14], 108 % of control.

For `COC(=O)c1c2cc(C(C)(C)C)cc-2c(N(C)C)nc(N(C)C)c1C(=O)OC`, the T/C by setting is: under setting [12], 95 % of control; under setting [13], 95 % of control.

As for `CCOc1ccc(N=Nc2c(O)n(-c3ccc(Br)cc3)c(=S)n(-c3ccc(OC)cc3)c2=O)cc1`, the T/C is 91 % of control under setting [1], 91 % of control under setting [2] and 94 % of control under setting [3].

For `C[C@H](CCC(=O)O)[C@H]1CC[C@H]2[C@@H]3[C@H](O)C[C@@H]4C[C@H](O)CC[C@]4(C)[C@H]3C[C@H](O)[C@]12C` (tested in a mixture with another compound), the T/C is 104 % of control (dose: 75.0 mg/kg/injection, schedule: Q01DX009 (ip), vehicle: saline sonified) and 163 % of control (dose: 300.0 mg/kg/injection, schedule: Q01DX009 (ip), vehicle: saline sonified).

`COc1cc(OC)c2c(=O)c3ccc([N+](=O)[O-])cc3n(C)c2c1`: the T/C is 100 % of control (dose: 100.0 mg/kg/injection, schedule: Q01DX001 (ip), vehicle: saline with Tween-80) and 100 % of control (dose: 200.0 mg/kg/injection, schedule: Q01DX001 (ip), vehicle: saline with Tween-80).

As to `N#Cc1ccccc1N=Nc1nc(N)c(C(N)=O)[nH]1`, the T/C runs as follows: (dose: 100.0 mg/kg/injection, schedule: Q04DX003 (ip), vehicle: Klucel (hydroxypropylcellulose) (HPC)) 100 % of control; (dose: 200.0 mg/kg/injection, schedule: Q04DX003 (ip), vehicle: Klucel (hydroxypropylcellulose) (HPC)) 103 % of control; (dose: 400.0 mg/kg/injection, schedule: Q04DX003 (ip), vehicle: Klucel (hydroxypropylcellulose) (HPC)) 100 % of control.

For the molecule `O=S(=O)(c1ccccc1)N1OC1c1ccccc1` (configuration not stated), the T/C is 100 % of control under setting [7]; 104 % of control under setting [12]; 86 % of control under setting [11]; 104 % of control under setting [13]; 99 % of control under setting [14].
